Results taken from ChEMBL document CHEMBL1201862, “PubChem BioAssay data set” (2004).
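96-well plates; 48 h exposure; 5 concentrations. Endpoints by linear interpolation between flanking doses. Not reached: highest tested concentration assigned. Abbreviation: GI50, concentration required for 50% inhibition of growth.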 Calls of active or inactive are those of the source. Rule as the data show it: active = GI50 up to about 1.1 µM and inactive = higher.

Tests used:
Assay in all cases: NCI-60 cell line screen, 48 h
786-0 = test system: 786-0
A498 = test system: A498
A549 = test system: A549
ACHN = test system: ACHN
BT-549 = test system: BT-549
CAKI-1 = test system: CAKI-1
CCRF-CEM = test system: CCRF-CEM
COLO 205 = test system: COLO 205
DMS-273 = test system: DMS-273
DU-145 = test system: DU-145
EKVX = test system: EKVX
HCC 2998 = test system: HCC 2998
HCT-116 = test system: HCT-116
HCT-15 = test system: HCT-15
HL-60 = test system: HL-60
HOP-18 = test system: HOP-18
HOP-62 = test system: HOP-62
HOP-92 = test system: HOP-92
HT-29 = test system: HT-29
Hs-578T = test system: Hs-578T
IGROV-1 = test system: IGROV-1
K562 = test system: K562
KM-20L2 = test system: KM-20L2
KM12 = test system: KM12
LOX IMVI = test system: LOX IMVI
LXFL 529 = test system: LXFL 529
M14 = test system: M14
M19-MEL = test system: M19-MEL
MCF7 = test system: MCF7
MDA-MB-231 = test system: MDA-MB-231
MDA-MB-435 = test system: MDA-MB-435
MDA-N = test system: MDA-N
MOLT-4 = test system: MOLT-4
Malme-3M = test system: Malme-3M
NCI-H226 = test system: NCI-H226
NCI-H23 = test system: NCI-H23
NCI-H460 = test system: NCI-H460
NCI-H522 = test system: NCI-H522
NCI/ADR-RES = test system: NCI/ADR-RES
OVCAR-3 = test system: OVCAR-3
OVCAR-4 = test system: OVCAR-4
OVCAR-5 = test system: OVCAR-5
OVCAR-8 = test system: OVCAR-8
PC-3 = test system: PC-3
RPMI-8226 = test system: RPMI-8226
RXF 393 = test system: RXF 393
RXF 631 = test system: RXF 631
SF-268 = test system: SF-268
SF-295 = test system: SF-295
SF-539 = test system: SF-539
SK-MEL-28 = test system: SK-MEL-28
SK-MEL-2 = test system: SK-MEL-2
SK-MEL-5 = test system: SK-MEL-5
SK-OV-3 = test system: SK-OV-3
SN12C = test system: SN12C
SNB-19 = test system: SNB-19
SNB-75 = test system: SNB-75
SNB-78 = test system: SNB-78
SR = test system: SR
SW-620 = test system: SW-620
T47D = test system: T47D
TK-10 = test system: TK-10
U-251 = test system: U-251
UACC-257 = test system: UACC-257
UACC-62 = test system: UACC-62
UO-31 = test system: UO-31
XF498 = test system: XF498

In the case of `COc1ccc2nc3cc(Cl)ccc3c(Nc3ccccc3-c3ccccc3Nc3c4ccc(Cl)cc4nc4ccc(OC)cc34)c2c1`, the GI50 (786-0) is reported as 26.7 µM (inactive), the GI50 (A498) is reported as > 56.5 µM (inactive) and the GI50 (A549) is reported as 45.2 µM (inactive). The GI50 (ACHN) was > 29.4 µM (inactive), the GI50 (BT-549) was 15.9 µM (inactive) and the GI50 (CAKI-1) was 21.3 µM (inactive). For the same compound, the GI50 (CCRF-CEM) was 4.52 µM (inactive), the GI50 (COLO 205) was 32.6 µM (inactive) and the GI50 (DMS-273) was 20.4 µM (inactive). For the same compound, the GI50 (DU-145) was 69.3 µM (inactive), the GI50 (EKVX) was 52 µM (inactive) and the GI50 (HCC 2998) was 31.6 µM (inactive). For the same compound, the GI50 (HCT-116) was 11.7 µM (inactive), the GI50 (HCT-15) was 14.3 µM and the GI50 (HL-60) was 2.66 µM (inactive). The GI50 (HOP-18) was > 100 µM (inactive), the GI50 (HOP-62) was 55.7 µM (inactive) and the GI50 (HOP-92) was 31.8 µM (inactive). The GI50 (HT-29) was 10.5 µM (inactive), the GI50 (Hs-578T) was 27.7 µM (inactive) and the GI50 (IGROV-1) was 45.7 µM (inactive). The GI50 (K562) was 4.63 µM (inactive), the GI50 (KM-20L2) was 19.9 µM (inactive) and the GI50 (KM12) was 22.7 µM (inactive). The GI50 (LOX IMVI) was 18.2 µM (inactive), the GI50 (LXFL 529) was 17.1 µM (inactive) and the GI50 (M14) was 43.6 µM (inactive). The GI50 (M19-MEL) was > 34.7 µM (inactive), the GI50 (MCF7) was 40.8 µM (inactive) and the GI50 (MDA-MB-231) was 26.9 µM (inactive). The GI50 (MDA-MB-435) was 8.32 µM (inactive), the GI50 (MDA-N) was 3.43 µM (inactive) and the GI50 (MOLT-4) was 3.13 µM (inactive). For the same compound, the GI50 (Malme-3M) was 35.2 µM (inactive), the GI50 (NCI-H226) was > 41.1 µM (inactive) and the GI50 (NCI-H23) was 21.7 µM (inactive). The GI50 (NCI-H460) was 33.6 µM (inactive), the GI50 (NCI-H522) was 8.43 µM (inactive) and the GI50 (NCI/ADR-RES) was 13.6 µM (inactive). The GI50 (OVCAR-3) was 45.4 µM (inactive), the GI50 (OVCAR-4) was 17.4 µM (inactive) and the GI50 (OVCAR-5) was 37.8 µM (inactive). For the same compound, the GI50 (OVCAR-8) was 28.5 µM (inactive), the GI50 (PC-3) was 11.3 µM (inactive) and the GI50 (RPMI-8226) was 8.17 µM (inactive). For the same compound, the GI50 (RXF 393) was 14.9 µM (inactive), the GI50 (RXF 631) was > 34.8 µM (inactive) and the GI50 (SF-268) was 31.9 µM (inactive). The GI50 (SF-295) was 33 µM (inactive), the GI50 (SF-539) was 24.2 µM (inactive) and the GI50 (SK-MEL-28) was 41.8 µM (inactive). For the same compound, the GI50 (SK-MEL-2) was 34.2 µM (inactive), the GI50 (SK-MEL-5) was 18.1 µM (inactive) and the GI50 (SK-OV-3) was > 75.7 µM (inactive). The GI50 (SN12C) was 32.2 µM (inactive), the GI50 (SNB-19) was 40.4 µM (inactive) and the GI50 (SNB-75) was 14.7 µM (inactive). For the same compound, the GI50 (SNB-78) was > 100 µM (inactive), the GI50 (SR) was 3.5 µM (inactive) and the GI50 (SW-620) was 15.4 µM (inactive). For the same compound, the GI50 (T47D) was 13.1 µM (inactive), the GI50 (TK-10) was 64.1 µM (inactive) and the GI50 (U-251) was 37.3 µM (inactive). For the same compound, the GI50 (UACC-257) was 27.5 µM (inactive), the GI50 (UACC-62) was 27.5 µM (inactive) and the GI50 (UO-31) was 26.9 µM (inactive). For the same compound, the GI50 (XF498) was > 39.4 µM (inactive).
